Results reported in ChEMBL document CHEMBL5550216, “Discovery of Triazolopyrimidine Derivatives as Selective P2X3 Receptor Antagonists Binding to an Unprecedented Allosteric Site as Evidenced by Cryo-Electron Microscopy” (J Med Chem, 2024).

Assays:
[1] = Permeability of compound at 10 uM incubated for 4 hrs by PAMPA; assay type: ADME; details: read-out: permeability
[2] = Metabolic stability in mouse liver microsomes assessed as compound remaining at 100 uM preincubated for 10 mins followed by NADPH addition and measured after 30 mins by LC-MS/MS analysis; assay type: ADME, Microsome; details: time 40 min, read-out: Stability
[3] = Metabolic stability in human liver microsomes assessed as compound remaining at 100 uM preincubated for 10 mins followed by NADPH addition and measured after 30 mins by LC-MS/MS analysis; assay type: ADME, Microsome; details: time 40 min, read-out: Stability
[4] = Metabolic stability in rat liver microsomes assessed as compound remaining at 100 uM preincubated for 10 mins followed by NADPH addition and measured after 30 mins by LC-MS/MS analysis; assay type: ADME, Microsome; details: time 40 min, read-out: Stability
P2X purinoceptor 1 = molecular target: T1, P2X purinoceptor 1 (Homo sapiens, UniProt P51575); test: Antagonist activity at human P2X1 receptor expressed in 1321N1 cells incubated for 30 mins in presence of ATP by Fluo-4 dye based microplate reader assay; assay type: cell-based
T1 sequence (P51575 whole entry): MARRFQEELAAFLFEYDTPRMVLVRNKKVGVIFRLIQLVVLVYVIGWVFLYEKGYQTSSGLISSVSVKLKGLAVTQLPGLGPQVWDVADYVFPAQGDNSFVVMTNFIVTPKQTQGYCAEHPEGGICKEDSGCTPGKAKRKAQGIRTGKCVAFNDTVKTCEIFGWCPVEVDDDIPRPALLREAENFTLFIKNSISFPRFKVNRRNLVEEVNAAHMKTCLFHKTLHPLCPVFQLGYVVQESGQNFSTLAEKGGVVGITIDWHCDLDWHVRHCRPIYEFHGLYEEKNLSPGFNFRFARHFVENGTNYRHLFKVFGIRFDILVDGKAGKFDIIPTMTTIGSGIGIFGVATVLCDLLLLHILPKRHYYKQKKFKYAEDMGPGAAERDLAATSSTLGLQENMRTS

P2X purinoceptor 7 = molecular target: T2, P2X purinoceptor 7 (Homo sapiens, UniProt Q99572); test: Antagonist activity at human P2X7 receptor expressed in 1321N1 cells incubated for 30 mins in presence of Bz-ATP by Fluo-4 dye based microplate reader assay; assay type: cell-based
T2 sequence (Q99572 whole entry): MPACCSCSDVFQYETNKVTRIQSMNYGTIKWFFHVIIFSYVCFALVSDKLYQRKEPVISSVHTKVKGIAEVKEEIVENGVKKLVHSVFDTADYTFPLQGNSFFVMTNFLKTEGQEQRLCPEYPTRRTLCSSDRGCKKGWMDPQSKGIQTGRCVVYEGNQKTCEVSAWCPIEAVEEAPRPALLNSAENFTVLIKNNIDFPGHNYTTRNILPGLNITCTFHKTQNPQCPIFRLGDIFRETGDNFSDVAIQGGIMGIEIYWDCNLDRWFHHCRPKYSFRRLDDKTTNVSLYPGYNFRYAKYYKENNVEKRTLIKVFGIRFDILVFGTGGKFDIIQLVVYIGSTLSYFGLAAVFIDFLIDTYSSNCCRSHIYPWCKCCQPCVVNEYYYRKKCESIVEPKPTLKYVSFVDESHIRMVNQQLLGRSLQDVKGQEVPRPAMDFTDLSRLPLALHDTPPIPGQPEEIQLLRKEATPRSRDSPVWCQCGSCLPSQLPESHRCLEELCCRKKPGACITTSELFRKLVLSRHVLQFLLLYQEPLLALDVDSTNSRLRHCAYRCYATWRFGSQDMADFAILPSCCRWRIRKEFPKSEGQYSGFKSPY

P2X purinoceptor 4 = molecular target: T3, P2X purinoceptor 4 (Homo sapiens, UniProt Q99571); test: Antagonist activity at human P2X4 receptor expressed in 1321N1 cells incubated for 30 mins in presence of ATP by Fluo-4 dye based microplate reader assay; assay type: cell-based
T3 sequence (Q99571 whole entry): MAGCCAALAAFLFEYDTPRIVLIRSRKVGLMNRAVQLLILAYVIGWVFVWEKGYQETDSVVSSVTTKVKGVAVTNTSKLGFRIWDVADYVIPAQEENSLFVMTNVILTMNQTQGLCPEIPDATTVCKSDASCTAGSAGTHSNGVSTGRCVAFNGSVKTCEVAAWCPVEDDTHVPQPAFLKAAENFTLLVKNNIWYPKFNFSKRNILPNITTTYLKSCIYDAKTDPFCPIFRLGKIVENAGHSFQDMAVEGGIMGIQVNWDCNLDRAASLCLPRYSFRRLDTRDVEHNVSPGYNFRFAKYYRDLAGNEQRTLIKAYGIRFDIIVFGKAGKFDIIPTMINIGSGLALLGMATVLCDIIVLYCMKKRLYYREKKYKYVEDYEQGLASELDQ

P2X purinoceptor 3 = molecular target: T4, P2X purinoceptor 3 (Homo sapiens, UniProt P56373); test: Antagonist activity at human P2X3R expressed in HEK293 cells incubated for 18 hrs by Fluo-4 dye based microplate reader assay
T4 sequence (P56373 whole entry): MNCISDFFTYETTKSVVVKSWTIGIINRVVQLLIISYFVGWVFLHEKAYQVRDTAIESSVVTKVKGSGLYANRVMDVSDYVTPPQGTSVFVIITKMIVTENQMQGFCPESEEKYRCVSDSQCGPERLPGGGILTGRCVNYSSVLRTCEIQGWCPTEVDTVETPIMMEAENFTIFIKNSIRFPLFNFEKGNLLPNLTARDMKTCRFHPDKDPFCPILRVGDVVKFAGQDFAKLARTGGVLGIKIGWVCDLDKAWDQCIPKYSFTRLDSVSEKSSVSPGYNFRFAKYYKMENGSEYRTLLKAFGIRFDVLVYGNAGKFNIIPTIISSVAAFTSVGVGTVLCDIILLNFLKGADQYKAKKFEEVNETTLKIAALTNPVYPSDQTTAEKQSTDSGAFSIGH

[5] = molecular target: T5, P2X2/P2X3 heterotrimeric receptor (Homo sapiens, UniProt P56373+Q9UBL9); test: Antagonist activity at human P2X2/3 receptor expressed in HEK293 cells preincubated for 30 mins followed by alpha, beta me-ATP addition and measured for 10 mins by Fluo-8 dye based FLIPR assay
T5 sequence (Q9UBL9 whole entry): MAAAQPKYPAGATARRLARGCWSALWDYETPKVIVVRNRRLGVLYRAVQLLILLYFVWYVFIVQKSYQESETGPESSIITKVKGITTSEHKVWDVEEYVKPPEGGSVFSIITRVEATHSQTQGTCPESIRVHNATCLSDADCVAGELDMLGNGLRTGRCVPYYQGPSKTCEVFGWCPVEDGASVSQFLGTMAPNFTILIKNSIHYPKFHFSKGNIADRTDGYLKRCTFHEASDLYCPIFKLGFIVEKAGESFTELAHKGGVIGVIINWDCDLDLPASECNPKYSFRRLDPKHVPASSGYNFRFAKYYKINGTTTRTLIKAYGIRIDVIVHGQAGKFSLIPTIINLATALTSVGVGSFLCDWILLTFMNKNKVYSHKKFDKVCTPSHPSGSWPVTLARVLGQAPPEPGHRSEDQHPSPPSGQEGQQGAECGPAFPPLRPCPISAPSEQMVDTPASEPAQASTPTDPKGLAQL
T5 sequence (P56373 whole entry): T4 sequence (P56373 whole entry)

[6] = molecular target: T5, P2X2/P2X3 heterotrimeric receptor; test: Antagonist activity at human P2X2/3R expressed in HEK293 cells incubated for 18 hrs by Fluo-4 dye based microplate reader assay

Papp at 4 h, 10 µM [1] | remaining at 0.5 h, 100 µM [2] | remaining at 0.5 h, 100 µM [3] | remaining at 0.5 h, 100 µM [4] | SMILES | further results
5.41 ×10⁻⁶ cm/s | – | – | – | NC(=O)N1c2ccccc2C=Cc2ccccc21 [CARBAMAZEPINE] | –
< 0.0185 ×10⁻⁶ cm/s | – | – | – | CC(C)(C)NCC(O)COc1cccc2c1CC(O)C(O)C2 (stereo not drawn) [NADOLOL] | –
– | 15.2% | 33.2% | 4.2% | CC(=O)N1CCN(c2cc(N[C@H](C)c3ccc4ccccc4c3)n3nc(C4CCCC4)nc3n2)CC1 | –
– | 18% | 28.3% | 0.2% | CC(=O)N1CCN(c2cc(N[C@H](C)c3ccc4ccccc4c3)n3nc(C4CCC4)nc3n2)CC1 | –
– | – | – | – | CNC(=O)c1cc(F)c(-c2nc3cc(C)ccn3c2CC2CCCN(C(=O)OC)C2)c(F)c1 (single isomer, unassigned) | IC50 (P2X purinoceptor 3): 0.0155 µM; IC50 [5]: > 24 µM; IC50 [6]: 5.06 µM

SMILES | Papp at 4 h, 10 µM [1] | remaining at 0.5 h, 100 µM [2] | remaining at 0.5 h, 100 µM [3] | remaining at 0.5 h, 100 µM [4] | further results
C[C@@H](Nc1cc(N2CCN(C(N)=O)CC2)nc2nc(C3CC3)nn12)c1ccc2ccccc2c1 | < 0.0185 ×10⁻⁶ cm/s | 50.6% | 50.2% | 0.3% | IC50 (P2X purinoceptor 1): 4.28 µM; IC50 (P2X purinoceptor 7): > 10 µM; IC50 (P2X purinoceptor 4): > 10 µM
